The subject of data set [1] is MCF7. The experiment in a line: Antiproliferative activity against human MCF7 cells assessed as reduction in cell viability incubated for 72 hrs by MTT assay. The data set is classed as functional, cell-based. Particulars: MCF7, 72 h. (In general: Tetrazolium assays rely on reduction of a dye to a coloured formazan, in cell work by metabolically active cells.)
The next data set concerns LOX IMVI. Put plainly: Growth inhibition of human LOX IMVI cells. Type of data set: functional.
A short description of data set [2]: Cytotoxicity against mouse BALB/3T3 cells assessed as reduction in cell viability incubated for 72 hrs by MTT assay. Type of data set: toxicity, cell-based.
In data set [3] the test system is MCF7. Put plainly: Antiproliferative activity against human MCF7 cells assessed as reduction in cell viability at 10 uM incubated for 48 hrs by MTT assay. The data set is classed as functional.
A further data set relates to KB 3-1. Put plainly: Antiproliferative activity against human KB 3-1 cells assessed as reduction in cell viability incubated for 72 hrs by MTT assay. Type of data set: functional, cell-based. Particulars: KB 3-1, 72 h.
The test system of a further data set is IGROV-1. The experiment in a line: Growth inhibition of human IGROV-1 cells. Type of data set: functional.
Data set [4] has as its target T1, Poly [ADP-ribose] polymerase 2 (Homo sapiens, UniProt Q9UGN5). The experiment in a line: Inhibition of PARP2 (unknown origin).
The test system of the next data set is RPMI-8226. The experiment in a line: Growth inhibition of human RPMI-8226 cells. The data set is classed as functional.
The next data set has as its system A549. Put plainly: Antiproliferative activity against human A549 cells assessed as reduction in cell viability incubated for 72 hrs by MTT assay. Type of data set: functional, cell-based. Particulars: A549, 72 h.
For the next data set, the system named is MDA-MB-468. Put plainly: Growth inhibition of human MDA-MB-468 cells. Type of data set: functional.
In data set [5] the test system is MCF7. Put plainly: Antiproliferative activity against human MCF7 cells assessed as reduction in cell viability at 10 uM incubated for 24 hrs by MTT assay. The data set is classed as functional.
Data set [6] has as its system MCF7. Put plainly: Cytotoxicity against human MCF7 cells harbouring BRCA1 assessed as inhibition of cell growth measured after 72 hrs by MTT assay. The data set is classed as functional, cell-based. Particulars: MCF7, 72 h.
The subject of another data set is NCI-H226. Put plainly: Growth inhibition of human NCI-H226 cells. Type of data set: functional.
Another data set relates to Jurkat. Put plainly: Antiproliferative activity against human Jurkat cells assessed as reduction in cell viability incubated for 72 hrs by MTT assay. Type of data set: functional, cell-based.
For data set [7], the system named is MCF7. Put plainly: Antiproliferative activity against human MCF7 cells assessed as reduction in cell viability at 10 uM incubated for […] by MTT assay. The data set is classed as functional.
Data set [8] concerns the target T2, Poly [ADP-ribose] polymerase 1 (Homo sapiens, UniProt P09874). Put plainly: Inhibition of PARP1 (unknown origin).
For another data set, the system named is SK-OV-3. The experiment in a line: Antiproliferative activity against human SK-OV-3 cells assessed as reduction in cell viability incubated for 72 hrs by MTT assay. Particulars: SK-OV-3, 72 h. The data set is classed as functional, cell-based.
The subject of data set [9] is HCT-116. Put plainly: Antiproliferative activity against human HCT-116 cells assessed as reduction in cell viability incubated for 72 hrs by MTT assay. Type of data set: functional, cell-based. Particulars: HCT-116, 72 h.
Another data set concerns SNB-75. The experiment in a line: Growth inhibition of human SNB-75 cells. The data set is classed as functional.
For data set [10], the system named is HCT-116. The experiment in a line: Growth inhibition of human HCT-116 cells. The data set is classed as functional.
The subject of another data set is HCC1395. The experiment in a line: Anticancer activity against human HCC1395 cells assessed as cell growth inhibition. The data set is classed as functional, cell-based.
Another data set has as its system MDA-MB-157. Put plainly: Anticancer activity against human MDA-MB-157 cells assessed as cell growth inhibition. Type of data set: functional, cell-based.
Data set [11] concerns the target T2, Poly [ADP-ribose] polymerase 1. The experiment in a line: Inhibition of human recombinant PARP-1 by ELISA assay.
The test system of data set [12] is MDA-MB-436. Put plainly: Antiproliferative activity against human MDA-MB-436 cells assessed as reduction in cell viability incubated for 72 hrs by MTT assay. Type of data set: functional, cell-based. Particulars: MDA-MB-436, 72 h.
For data set [13], the target named is T2, Poly [ADP-ribose] polymerase 1. Put plainly: Inhibition of human recombinant PARP1 expressed in Escherichia coli BL21(DE3).
For data set [14] the target is unchanged. Put plainly: Inhibition of PARP1 (unknown origin) at 10 uM relative to control.
The nature of data set [15]: Microsomal stability in rat liver microsomes assessed as half life measured for 48 hrs by LC-MS/MS analysis. Type of data set: ADME, Microsome. In general terms: Liver microsomes are a subcellular fraction often used to study metabolism.
The target of data set [16] is T2, Poly [ADP-ribose] polymerase 1. Put plainly: Inhibition of PARP1 (unknown origin) using biotinylated NAD+ as substrate by luminescence assay.
The target in data set [17] is T1, Poly [ADP-ribose] polymerase 2. The experiment in a line: Inhibition of PARP2 (unknown origin) at 10 uM relative to control.
The subject of data set [18] is MCF7. The experiment in a line: Cytotoxicity against human MCF7 cells assessed as reduction in cell viability incubated for 24 hrs by MTS assay. Type of data set: functional, cell-based. Particulars: MCF7, 24 h.
Data set [19] is described as follows: Microsomal stability in human liver microsomes assessed as half life measured for 48 hrs by LC-MS/MS analysis. The data set is classed as ADME, Microsome.
Another data set has as its system MDA-MB-231. The experiment in a line: Cytotoxicity against human MDA-MB-231 cells assessed as reduction in cell viability incubated for 24 hrs by MTS assay. Type of data set: functional, cell-based. Particulars: MDA-MB-231, 24 h.
The target in data set [20] is T1, Poly [ADP-ribose] polymerase 2. Put plainly: Inhibition of PARP2 (unknown origin) using biotinylated NAD+ as substrate by luminescence assay.
For data set [21], the system named is MDA-MB-436. The experiment in a line: Cytotoxicity against human MDA-MB-436 cells assessed as reduction in cell viability incubated for 24 hrs by MTS assay. Particulars: MDA-MB-436, 24 h. Type of data set: functional, cell-based.
The next data set concerns Caco-2. The experiment in a line: Cytotoxicity against human Caco-2 cells assessed as inhibition of cell growth incubated for 72 hrs by CCK-8 assay. Type of data set: functional, cell-based. Particulars: Caco-2, 72 h.
A short description of data set [22]: Cytotoxicity against African green monkey Vero cells. Type of data set: toxicity, cell-based, Chlorocebus sabaeus.
Data set [23] has as its system MCF7. The experiment in a line: Anticancer activity against human MCF7 cells assessed as reduction in cell viability. The data set is classed as functional, cell-based.
The subject of the next data set is CAPAN-1. The experiment in a line: Antiproliferative activity against human CAPAN-1 cells assessed as reduction in cell growth. Type of data set: functional, cell-based.
For data set [24], the system named is MDA-MB-436. The experiment in a line: Antiproliferative activity against human MDA-MB-436 cells assessed as reduction in cell viability. The data set is classed as functional, cell-based.
Data set [25] relates to MDA-MB-436. The experiment in a line: Cytotoxicity against human MDA-MB-436 cells. The data set is classed as functional, cell-based.
In data set [26] the test system is MCF7. Put plainly: Antiproliferative activity against human MCF7 cells assessed as reduction in cell growth measured after 72 hrs by MTT assay. Type of data set: functional, cell-based. Particulars: MCF7, 72 h.
Data set [27] addresses Protein mono-ADP-ribosyltransferase PARP3 (Homo sapiens, UniProt Q9Y6F1). Put plainly: Inhibition of PARP3 (unknown origin).
The target of data set [28] is T2, Poly [ADP-ribose] polymerase 1. The experiment in a line: Inhibition of human recombinant PARP1 at 0.1 uM relative to control.
For data set [29] the target is unchanged. The experiment in a line: Inhibition of human recombinant PARP1 at 0.01 uM relative to control.
Data set [30] is described as follows: Antiproliferative activity against human MCF10A cells assessed as inhibition of cell growth incubated for 72 hrs by alamar blue assay. Type of data set: functional, cell-based. Particulars: MCF10AT1, 72 h.
The target of data set [31] is T2, Poly [ADP-ribose] polymerase 1. Put plainly: Inhibition of human recombinant PARP1 at 1 uM relative to control.
Data set [32] has the same target. Put plainly: Inhibition of human recombinant PARP1 at 10 uM relative to control.
The target is the same in data set [33]. The experiment in a line: Inhibition of human recombinant PARP1 at 100 uM relative to control.

Molecules are shown by their SMILES. Bounds are passed on as bounds.

As usually defined, the IC50 is the concentration needed to halve the response being measured. As usually defined, the GI50 is the concentration at which growth is held to half of that of the control. Usually inhibition stands for the relative decrease from the control value, in per cent. Usually half-life stands for how long it takes for the measured level to halve.

T2 sequence (P09874 whole entry): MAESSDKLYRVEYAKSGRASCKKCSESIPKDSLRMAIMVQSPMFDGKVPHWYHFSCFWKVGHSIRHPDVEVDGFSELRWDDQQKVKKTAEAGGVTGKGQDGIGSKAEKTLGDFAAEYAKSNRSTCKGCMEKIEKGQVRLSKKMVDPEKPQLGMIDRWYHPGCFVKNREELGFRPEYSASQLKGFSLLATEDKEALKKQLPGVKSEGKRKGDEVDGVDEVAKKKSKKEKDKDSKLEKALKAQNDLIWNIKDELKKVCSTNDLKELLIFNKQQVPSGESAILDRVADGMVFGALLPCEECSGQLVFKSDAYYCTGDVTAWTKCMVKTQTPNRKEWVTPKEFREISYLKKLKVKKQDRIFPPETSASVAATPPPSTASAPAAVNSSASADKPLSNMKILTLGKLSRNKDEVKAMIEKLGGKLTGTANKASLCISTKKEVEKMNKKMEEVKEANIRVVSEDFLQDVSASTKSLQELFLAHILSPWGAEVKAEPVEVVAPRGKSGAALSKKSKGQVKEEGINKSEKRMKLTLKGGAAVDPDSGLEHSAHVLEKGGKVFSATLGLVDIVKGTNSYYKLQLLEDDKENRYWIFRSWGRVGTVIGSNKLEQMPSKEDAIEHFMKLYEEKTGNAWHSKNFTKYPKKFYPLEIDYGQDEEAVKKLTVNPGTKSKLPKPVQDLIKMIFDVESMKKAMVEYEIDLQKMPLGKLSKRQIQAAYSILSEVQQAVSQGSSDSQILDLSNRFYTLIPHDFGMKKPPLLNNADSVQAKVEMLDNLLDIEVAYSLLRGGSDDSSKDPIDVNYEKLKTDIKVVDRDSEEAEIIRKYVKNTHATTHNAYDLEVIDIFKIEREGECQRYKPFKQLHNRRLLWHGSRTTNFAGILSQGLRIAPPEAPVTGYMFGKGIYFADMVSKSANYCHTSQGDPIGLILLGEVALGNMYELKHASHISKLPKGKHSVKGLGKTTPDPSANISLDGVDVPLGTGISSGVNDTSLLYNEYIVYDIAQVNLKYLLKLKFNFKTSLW
T1 sequence (Q9UGN5 whole entry): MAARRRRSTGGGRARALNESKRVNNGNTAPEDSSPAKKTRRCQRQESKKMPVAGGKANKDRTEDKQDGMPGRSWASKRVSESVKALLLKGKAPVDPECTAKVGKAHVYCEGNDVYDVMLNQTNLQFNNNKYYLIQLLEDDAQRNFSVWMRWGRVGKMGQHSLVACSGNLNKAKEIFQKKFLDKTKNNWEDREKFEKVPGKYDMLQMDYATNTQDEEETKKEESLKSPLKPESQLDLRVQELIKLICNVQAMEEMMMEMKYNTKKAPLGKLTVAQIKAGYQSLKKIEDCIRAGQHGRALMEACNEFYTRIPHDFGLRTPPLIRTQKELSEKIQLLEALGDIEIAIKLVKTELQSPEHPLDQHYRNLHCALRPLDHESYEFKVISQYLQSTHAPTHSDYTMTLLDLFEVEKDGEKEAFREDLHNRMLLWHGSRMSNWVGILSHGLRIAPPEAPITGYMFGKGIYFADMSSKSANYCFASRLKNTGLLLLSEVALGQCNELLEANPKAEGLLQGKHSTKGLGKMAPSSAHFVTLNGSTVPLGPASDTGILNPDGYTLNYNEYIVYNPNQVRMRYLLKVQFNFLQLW
Sequence of Protein mono-ADP-ribosyltransferase PARP3 (Q9Y6F1 whole entry): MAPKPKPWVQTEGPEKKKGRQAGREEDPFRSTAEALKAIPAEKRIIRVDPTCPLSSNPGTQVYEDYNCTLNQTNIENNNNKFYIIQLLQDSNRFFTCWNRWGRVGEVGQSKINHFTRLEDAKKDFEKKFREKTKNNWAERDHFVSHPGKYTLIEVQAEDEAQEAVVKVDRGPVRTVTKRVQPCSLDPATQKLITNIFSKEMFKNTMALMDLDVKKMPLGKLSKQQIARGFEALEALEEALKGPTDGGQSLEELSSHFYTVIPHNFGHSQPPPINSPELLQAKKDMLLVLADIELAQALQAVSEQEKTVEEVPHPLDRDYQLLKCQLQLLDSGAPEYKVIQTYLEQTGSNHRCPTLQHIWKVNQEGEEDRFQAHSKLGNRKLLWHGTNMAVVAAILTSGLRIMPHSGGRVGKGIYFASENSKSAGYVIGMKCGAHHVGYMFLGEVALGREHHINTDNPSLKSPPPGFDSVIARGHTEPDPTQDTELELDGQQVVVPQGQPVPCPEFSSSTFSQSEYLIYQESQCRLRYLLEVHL

With `CCOC(=O)c1ccc(NC(=O)CS/C(=C\C(=O)c2sc(Nc3ccccn3)nc2C)c2ccccc2F)cc1`, the IC50 with MCF7 [1] was determined as 2.79 µM; in the data set on KB 3-1, 7.63 µM; in data set [4] it was 0.72 µM; in the data set with A549, 8.05 µM; in the data set on MCF7 [6], 0.7 µM; with Jurkat, 5.36 µM. Moreover, the IC50 in [8] amounted to 2.28 µM; in the data set on SK-OV-3, 7.87 µM; in the data set on HCT-116 [9] it was 6.11 µM. The GI50 came to 0.312 µM in the data set with LOX IMVI; 12.1 µM with IGROV-1; 8.29 µM in the data set with RPMI-8226; 4.24 µM in the data set with MDA-MB-468; 2.52 µM in the data set with NCI-H226; 3.58 µM in the data set with SNB-75. Further, the concentration for 50% growth inhibition (GI50) in the data set with HCT-116 [10] stood at 23 µM. In addition, in data set [2], the IC50 at 72 h is 7.79 µM. Besides, the Activity in the data set on MCF7 [3] came to 43%; with MCF7 [5] it was 19.9%; in the data set on MCF7 [7] it was 90%.

Turning to `Cn1ncnc1[C@H]1c2n[nH]c(=O)c3cc(F)cc(c23)N[C@@H]1c1ccc(F)cc1` [TALAZOPARIB], the values for the half-inhibitory concentration (IC50) with HCC1395 and in the data set with MDA-MB-157 were 0.00046 µM and 0.00037 µM, respectively.

For `NC(=O)c1cccc2[nH]c(-c3ccc(C(=O)N4CCN(C(=O)c5ccc(Cl)o5)CC4)cc3)nc12`, the IC50 came to 0.043 µM in data set [11] and 36.7 µM in the data set with MDA-MB-436 [12].

`NC(=O)c1cccc2[nH]c(-c3ccc(C(=O)N4CCN(C(=O)c5ccc(Br)o5)CC4)cc3)nc12`: the IC50 in data set [11] stood at 0.023 µM; with MDA-MB-436 [12] it was 43.6 µM.

Regarding `NC(=O)c1cccc2[nH]c(-c3ccc(C(=O)NC4CCN(C(=O)c5ccc(Cl)o5)C4)cc3)nc12` (stereo not drawn), the IC50 in [13] is 0.00865 µM.

Regarding `NC(=O)c1cccc2[nH]c(C3CCN(C4CCC(F)(F)CC4)CC3)nc12`, the inhibition in [14] was found to be 47.9%; in data set [17] it was 90.8%. Further, the values for the half-life in data set [15] and in data set [19] were over 16.7 h and 4.38 h, respectively. Also, the IC50 in [16] was 0.0043 µM; in the data set with MCF7 [18], 60.8 µM; in the data set with MDA-MB-231, 96.8 µM; in [20] it was 0.00158 µM; in the data set on MDA-MB-436 [21] it was 28.3 µM.

As for `CCOC(=O)CO/N=C(\N)c1ccccc1`, the IC50 in the data set with Caco-2 amounted to 0.43 µM; in data set [22] it was 6.76 µM; in the data set with MCF7 [23], 0.8 µM.

For the compound `Cc1ccoc1C(=O)N1CCN(C(=O)c2ccc(-c3nc4c(C(N)=O)cccc4[nH]3)cc2)C(C)C1` (stereo not drawn), in data set [13], the IC50 worked out at 0.0163 µM.

On to `O=C(NCCc1ccc(F)cc1)c1cc(Cc2n[nH]c(=O)c3ccccc23)ccc1F`, for which the IC50 in data set [8] is 0.00324 µM; with CAPAN-1, 7.5 µM.

For the compound `Cc1ccoc1C(=O)N1CCCN(C(=O)c2ccc(-c3nc4c(C(N)=O)cccc4[nH]3)cc2)CC1`, the IC50 in the data set on MDA-MB-436 [24] was 25.4 µM.

With `COc1ccc(/C=C2\CC3(CC4C2=NN(C(N)=S)C4c2ccc(OC)cc2)OCCO3)cc1` (stereo not drawn), in the data set on MDA-MB-436 [25], it took 0.67 µM to reach half-maximal inhibition (IC50).

For `O=C(Cn1c(=S)n(-c2ccccc2)c(=O)c2ccccc21)Nc1ccc2c(c1)C(=O)c1ccccc1C2`, the results for the IC50 (in data set [8]; in the data set with MCF7 [26]) were 0.17 µM and 11.4 µM, respectively.

With `CCN(CC)CCC(=O)Nc1ccc(-c2nc3cc(Cl)ccc3o2)cc1`, in [27], the IC50 was 0.057 µM.

In the case of `COc1ccc(CSc2nccc(OCC(=O)N3CCN(c4cccc(Cl)c4Cl)CC3)n2)cc1`, the inhibition in data set [28] came out at 2%; in data set [29] it was 1.3%; in [31], 20.6%; in data set [32], 53%; in [33] it was 82.1%. The IC50 in data set [30] stood at 18.2 µM.

For the origin of these results see ChEMBL document CHEMBL5550171, “Poly (ADP-ribose) polymerase (PARP) inhibitors as anticancer agents: An outlook on clinical progress, synthetic strategies, biological activity, and structure-activity relationship” (Eur J Med Chem, 2024).
